Measured values taken from US20160228452A1, “TREATMENT OF METABOLIC DISEASES BY INHIBTION OF HTR2A OR HTR3” (Korea Advanced Institute of Science and Technology, priority 2014, published 2016).
Entries after “also recorded” stand apart in the source; their conditions may differ.

How the values were obtained:
eWAT, iWAT and BAT = assay: Histological analysis of adipose tissues (H&E, Ucp1/Plin1 immunohistochemistry, TEM); format: in vivo, mice
Experimental: Inguinal, epididymal and interscapular adipose tissues were harvested, fixed in 4% (w/v) paraformaldehyde in PBS and embedded in paraffin. Then, 5-μm-thick tissue sections were deparaffinized, rehydrated and used for hematoxylin and eosin (H&E) staining, immunohistochemistry and immunofluorescence. For antigen retrieval, the slides were submerged in 10 mM sodium citrate (pH 6.0) and heated to 95° C. for 20 minutes. Visualization of Ucp1 and Plin1 was performed using a VECTASTAIN ABC Kit (PK-4001, Vector Laboratories, Burlingame, Calif., USA) according to the manufacturer's instructions. Briefly, the slides were incubated with BLOXALL Blocking solution (SP-6000, Vector Laboratories) followed by incubation with 2% normal goat serum for 30 min at room temperature to block non-specific binding. Sections were incubated with primary antibody against Ucp1 (ab10983, Abcam) or Plin1 (ab3526, Abcam) for 1 h at room temperature followed by 30-min incubation with a species-specific, biotinylated secondary antibody. The slides were incubated with Vectastain ABC-AP reagent for 30 min and then incubated with […] substrate (DAB, SK-4100, Vector Laboratories) for visualization. The stains and antibodies used for the immunofluorescence staining included BODIPY (BODIPY®493/503, Invitrogen), anti-5HT (ab10385, Abcam) and DAPI (D9542, Sigma). Electron microscopy images of BAT were obtained by transmission electron microscopy (Tecnai Spirit TEM) as previously described^35. Briefly, the BAT was first fixed with 2.5% glutaraldehyde, and after fixation, ultra-thin sections were cut, stained with uranyl acetate and lead citrate and then examined under an electron microscope.

[1] = High-fat-diet-induced obesity in mice: growth curves, body weight and eWAT mass; format: in vivo; settings: PCPA 300 mg/kg daily i.p., 10 weeks, HFD-fed mice vs HFD-fed control
Source text: The generation of Tph^flox/flox mice, Adipoq-cre mice, and aP2-CreERT2 mice has previously been reported^17,30,31. C57BL/6J mice, Htr3a-targeted KO mice (B6.129X1-Htr3a^tm1jul/J, Htr3a KO) and leptin-deficient ob/ob mice (B6.V-Lep^ob/J) were purchased from the Jackson Laboratory (Bar Harbor, Me., USA). To create the adipose tissue-specific Tph1 KO mice, Tph1^flox/flox mice were crossed with Adipoq-Cre mice (Tph1 FKO mice) and aP2-CreERT2 mice (Tph1 AFKO mice). The mice were housed in climate-controlled, specific pathogen-free (SPF) barrier facilities under a 12-h light-dark cycle, and chow and water were provided ad libitum. The Institutional Animal Care and Use Committee at the Korea Advanced Institute of Science and Technology approved the experimental protocols for this study. Htr3a KO mice and Tph1^flox/flox mice were backcrossed with C57BL/6J mice for more than 10 generations. Cre-recombination of 6-week-old Tph1 AFKO mice was induced by intraperitoneal (IP) injection of 5 doses of 2 mg of tamoxifen (Sigma) for 1 week. We fed male mice (aged 8˜10 weeks) either on SCD (standard chow diet; 12% fat calories, Purina Laboratory Rodent Diets 38057) or HFD (60% fat calories, Research Diets D12492). PBS or 300 mg/kg PCPA was administered as a daily intraperitoneal injection. LP-533401 was dissolved in PEG-400 and 5% dextrose (40:60 ratio). Vehicle or 30 mg/kg LP-533401 was administered daily with a feeding needle. We randomly divided C57BL/6J mice into 2-4 groups. For transgenic mice, we compared data between KO mice and their WT littermates. No blinding was done.

BAT = assay: 18F-FDG PET/CT glucose utilization of BAT; format: in vivo; settings: PCPA-treated HFD-fed mice vs HFD-fed control
Experimental: (§1) To measure the metabolic rate, the mice were housed individually in an eight-chamber, open-circuit Oxymax/CLAMS (Columbus Instruments Comprehensive Lab Animal Monitoring System) system as previously described^33. Each mouse was assessed for 72 h in the fed state to determine their metabolic rates. PET imaging was performed using a microPET R4 scanner (Concorde Microsystems, Siemens) as previously described^34.

[2] = system: genes involved in lipid metabolism and thermogenesis; assay: Real-time RT-PCR of mouse adipose tissues; format: in vivo, mice
Experimental: Total RNA was extracted from the mouse tissues or cell lines using TRIzol reagent (Invitrogen) according to the manufacturer's protocol. After TURBO DNase (Invitrogen) treatment, 2 μg of total RNA was used to generate complementary DNA with Superscript III reverse transcriptase (Invitrogen). To analyze gene expression, real-time PCR was performed with a ViiA 7 Real-Time PCR system (Applied Biosystems) and the Power SYBR Green PCR master mix (Applied Biosystems). Relative quantification was based on the ddCt method, and ActB was used as an endogenous control (internal control).

[3] = intraventricular injection, reference 19; cited from earlier work
[4] = Glucose tolerance test and insulin tolerance test; format: in vivo, mice; settings: PCPA-treated HFD-fed mice vs HFD-fed control
Experimental: For the glucose tolerance tests, the mice were administered 2 g/kg D-glucose in PBS after overnight fasting. For the insulin tolerance tests, the mice were intraperitoneally injected with insulin (0.75 U/kg) after being fasted for 4 h. The blood glucose levels in blood samples obtained from tail veins 0, 15, 30, 45, 60, 90 and 120 min after injection were measured using a Gluco DR Plus glucometer (Allmedicus).

[5] = Metabolic analysis by indirect calorimetry (Oxymax/CLAMS); format: in vivo, mice
Experimental: as §1

[6] = Blood chemistry analysis (serum cholesterol, LDL cholesterol, FFA, leptin by ELISA); format: in vivo; settings: PCPA 300 mg/kg, 6 weeks, HFD-fed mice vs HFD-fed control
Experimental: Tissue serotonin was extracted by homogenization in extraction buffer containing 0.02% ascorbic acid in 0.1 M perchloric acid followed by centrifugation. The serotonin levels in the supernatants were measured via the liquid chromatography-mass spectrometry method. Serum leptin (Enzo Life Science, Farmingdale, N.Y., USA), LDL-cholesterol (Waco), and FFA (Biovision, Mountain View, Calif., USA) were measured using enzyme-linked immunosorbent assay (ELISA) kits.

[7] = PCPA-treated vs control mice, HFD for 6 weeks

Compound: N[C@@H](Cc1ccc(Cl)cc1)C(=O)O (racemic) [PCPA, p-chlorophenylalanine]
- iWAT adipocyte size, HFD vs SCD within PCPA-treated mice (eWAT, iWAT and BAT; 18-week-old PCPA-treated mice, HFD for 10 weeks compared with PCPA-treated mice fed an SCD): decreased adipocyte size
- number and size of mitochondria in BAT (TEM) (eWAT, iWAT and BAT; HFD-fed mice with PCPA treatment for 6 weeks): increased size and number of mitochondria
- eWAT cellular structure / cell damage (Plin1 staining) (eWAT, iWAT and BAT; PCPA 300 mg/kg for 6 weeks, SCD or HFD): normal cellular structures; also recorded: No gross cell damage was observed
- browning of iWAT (Ucp1-expressing multilocular cells) (eWAT, iWAT and BAT; PCPA-treated mice): brown adipocyte-like multilocular cells that expressed Ucp1 were observed
- density of the cristae in BAT mitochondria (eWAT, iWAT and BAT; PCPA-treated mice): increased
- iWAT adipocyte size (eWAT, iWAT and BAT; PCPA-treated mice): decreased
- multilocular adipocytes in BAT (eWAT, iWAT and BAT; PCPA-treated mice, HFD): increased multilocular adipocytes
- BAT lipid droplet size (eWAT, iWAT and BAT; PCPA-treated vs control BAT, regardless of diet): decreased lipid droplet sizes
- eWAT adipocyte size (eWAT, iWAT and BAT; PCPA-treated vs control mice, SCD or HFD): decreased adipocyte size; also recorded: did not increase the adipocyte size
- body weight gain [1]: decreased weight gain; also recorded: reduction in body weight gain
- eWAT mass [1]: reduced eWAT mass; also recorded: decreased eWAT
- glucose (18F-FDG) uptake into BAT (BAT): significantly increased glucose uptake
- Dio2 mRNA level in BAT ([2]; PCPA 300 mg/kg, 6 weeks): highest increase
- thermogenic gene expression in BAT ([2]; PCPA 300 mg/kg, 6 weeks): increased thermogenic gene expression
- Dio2 mRNA level in iWAT ([2]; PCPA-treated mice fed an HFD): increased
- Ucp1 mRNA level in iWAT ([2]; PCPA-treated mice fed an HFD): increased
- expression of lipogenic (triglyceride storage) genes in eWAT ([2]; PCPA-treated vs control mice, both SCD and HFD): suppressed expression
- appetite [3]: reduce appetite
- body weight [3]: increase body weight
- glucose tolerance ([4]; 2 g/kg glucose after overnight fasting): improved glucose tolerance
- insulin sensitivity / insulin resistance ([4]; insulin 0.75 U/kg after 4 h fasting): improved; also recorded: reduced insulin resistance
- metabolic rates (metabolic cage data) on standard chow diet ([5]; PCPA 300 mg/kg for 6 weeks vs vehicle, SCD-fed mice): did not affect the metabolic rates; also recorded: no significant differences
- O2 consumption [5, 7]: increased
- carbon dioxide production (VCO2) [5, 7]: increased carbon dioxide production
- energy expenditure [5, 7]: increased energy expenditure
- heat production [5, 7]: increased
- blood level of LDL cholesterol [6]: decreased
- blood level of free fatty acid (FFA) [6]: decreased; also recorded: reduced
- blood level of leptin [6]: decreased; also recorded: reduced
- serum cholesterol [6]: reduced
